Laboratory results published in BigSolDB 2.1.

Br.Cc1ccc(Sc2ccccc2N2CCNCC2)c(C)c1
solubility (mole fraction)
Settings	283.15 K	288.15 K	293.15 K	298.15 K	303.15 K	308.15 K	313.15 K	318.15 K
in 2-butanone	6.2e-05	8.4e-05	0.000136	0.000163	0.00021	0.000267	0.000311	0.000338
in ethanol	0.00123	0.00138	0.0015	0.00162	0.00199	0.00269	0.00297	0.00341
in n-butanol	0.000582	0.000751	0.00086	0.00121	0.0017	0.00202	0.0023	0.00271
in n-propanol	0.000934	0.00101	0.00115	0.00132	0.00178	0.00214	0.00245	0.00295
